3 compounds from patent publication US7875586B2 (priority 2002, dated 2011) can be followed below.

“Also recorded” adds a separate entry of the source. Peptide text beside a SMILES is read from it. * marks the point of attachment. Cbz = O=C(OCc1ccccc1)*; CH2F = FC*

Common to all, as to assay type: cell-based, human
Test [1] concerns Caco-2 cells.
A further test has as its system living Caco-2 cells.
The test system of test [2] is Caco-2 cells. The source holds these as a separate data set.
The test system of a further test is T-84 cells.

Regarding `COC(=O)C[C@H](NC(=O)[C@H](C)NC(=O)[C@@H](NC(=O)OCc1ccccc1)C(C)C)C(=O)CF` [z-VAD-fink] (Cbz-Val-Ala-Asp(OMe)-CH2F), the “Effect of caspase inhibition on DNA fragmentation caused by Stx1B” value in the test on Caco-2 cells [1] was “decreased DNA fragmentation; also recorded: Inhibition of apoptotic DNA fragmentation”.

Consider `C[C@@H](N)[C@H]1CC[C@H](C(=O)Nc2ccncc2)CC1` [Y-27632], for which, in the test on living Caco-2 cells, the Cell morphology result is “pronounced effects”; the “Filopodia and filopodia-mediated cell-cell contacts” value is listed as “did not change”.

Consider `CCCCCCCCCCCCCCCC(=O)NC(CN1CCOCC1)C(O)c1ccccc1` (stereo not drawn) [PPMP, threo-1-phenyl-2-palmitoylamino-3-morpholino-1-propanol], for which the “Subpopulation of Gb3 enriched cells with filopodia on the leading edge” value with Caco-2 cells [2] and in the test with T-84 cells was “completely eliminated” in each case.
